Experimental data: US20070179123A1, “Methods and compositions for treating diseases associated with pathogenic proteins” (priority 2005, published 2007)
≈ marks a conversion by molar mass, not a printed value. Where “and” joins values, the source holds several entries; their conditions need not be identical. Identical values can stand only once.

How the values were obtained:
[1] = target: PrP^Sc in RML-infected N2a cells (Mus musculus, UniProt P04925); experiment: cell-based; conditions: for IC50: IC50 for purging of PRP^Sc in RML-infected N2a cells
Chain of PrP^Sc in RML-infected N2a cells (P04925 23-230 limits assumed): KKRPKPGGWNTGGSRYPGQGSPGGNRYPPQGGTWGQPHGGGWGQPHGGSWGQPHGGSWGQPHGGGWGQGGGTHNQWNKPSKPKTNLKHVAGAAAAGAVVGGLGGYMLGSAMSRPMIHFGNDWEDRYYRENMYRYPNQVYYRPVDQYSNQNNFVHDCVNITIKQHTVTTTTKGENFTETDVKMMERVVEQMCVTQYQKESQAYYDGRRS

amyloid peptide = amyloid peptide (Homo sapiens, UniProt P05067); experiment: Inhibition of amyloid fibrillogenesis, Congo Red assay
Chain of amyloid peptide (P05067 672-713): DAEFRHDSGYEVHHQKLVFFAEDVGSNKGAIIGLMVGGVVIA

[2] = target: PrP^Sc in 22L-infected N2a cells (Mus musculus, UniProt P04925); experiment: cell-based; conditions: for IC50: IC50 for purging of PRP^Sc in 22L-infected N2a cells
Chain of PrP^Sc in 22L-infected N2a cells (P04925 23-230 limits assumed): as the sequence (P04925 23-230 limits assumed) above

Aβ42 fibrils = Aβ42 fibrils (Homo sapiens, UniProt P05067); experiment: Fibril disassociation gel assay; type: biochemical; conditions: 3-100 μg/ml compound
Chain of Aβ42 fibrils (P05067 672-713, species assumed): as the sequence (P05067 672-713) above
Procedure: (§1) The 40 μM solution was used in fibrillogenesis assay, as described below. The 60 μM peptide solution was undisturbed for six months and allowed to form fibrils, and was utilized in a fibril disassociation assay.
(§2) Mefloquin was dissolved in DMSO and diluted 100 fold into the final reaction mixture, keeping the DMSO concentration constant at 1% (v/v). After incubation, 10 ul of each sample was mixed with 2.5 μl of 4×SDS-sample buffer (Invitrogen), and loaded onto a precast 12% BT gel (Invitrogen). The electrophoresis was run with MES running buffer (Invitrogen) at 200V, and the gels were stained using a silverXpress silver staining kit (Invitrogen). The lane assignments are as follows: Lane 1: molecular weight markers, 2; 40 μM fresh Aβ42, Lanes 3-7: 40 μM Aβ42 with mefloquin from 0, 3, 10, 30 to 100 μg/ml. Lanes 8-12: 10 μl Aβ42 fibrils with mefloquin from 0, 3, 10, 30 to 100 μg/ml.
(§3) Gels were photographed and scanned, and the band densities was analyzed using NIH Imagequant, version 5.2 (GE Healthcare, Sunnyvale, Calif.).

Aβ42 = target: T1, Aβ42 (Homo sapiens, UniProt P05067); experiment: Amyloid fibrillogenesis gel assay; type: biochemical; conditions: 40 μM Aβ42, 3-100 μg/ml compound, 5 days
T1 construct: 40 μM fresh Aβ42, Lanes 3-7: 40 μM Aβ42 with mefloquin
T1 sequence (P05067 672-713, species assumed): as the sequence (P05067 672-713) above
Procedure: as §1, §2, §3

[3] = target: yeast prion protein Sup-NM (Saccharomyces cerevisiae, UniProt P05453); experiment: biochemical; conditions: for IC50: IC50 for inhibition of Sup35 yeast prion polymerization
Chain of yeast prion protein Sup-NM (P05453 1-254 limits assumed): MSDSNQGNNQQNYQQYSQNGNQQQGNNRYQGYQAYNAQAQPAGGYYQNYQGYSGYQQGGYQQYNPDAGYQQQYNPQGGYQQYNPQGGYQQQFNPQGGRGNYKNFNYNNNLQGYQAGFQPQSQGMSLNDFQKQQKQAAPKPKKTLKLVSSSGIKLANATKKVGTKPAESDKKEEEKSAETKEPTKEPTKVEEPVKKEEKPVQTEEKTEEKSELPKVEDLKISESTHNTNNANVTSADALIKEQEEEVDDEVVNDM

[4] = test system: yeast PSI^+ (the yeast prion protein Sup35); experiment: microbe, parasite or virus in culture; type: cell-based
22L-infected N2a cells = experiment: Toxicity seen in 22L-infected N2a cell assay (light microscopy); type: cell-based, mouse; conditions: @ 10 μM
Procedure: 10 mM solutions of tafenoquine were prepared and diluted in DMSO and then into PBS prior to being introduced to the cell medium. 5 μL of solutions were added to the cell medium. DMSO concentrations in the cell media were never higher than 0.5% (v/v). After tafenoquine was added, the cells were incubated for 5 days at 37° C. in a CO2 incubator before being lysed. Prior to cell lysis, the cells were inspected by light microscopy for toxicity, bacterial contamination, and density compared to controls. After removal of the cell media, 50 μL of lysis buffer was added to each well. Lysis buffer was composed of 0.5% (w/v) Triton X-100, 0.5% (w/v) sodium deoxycholate, 5 mM Tris-HCl, pH 7.4 at 4° C., 5 mM EDTA, and 150 mM NaCl. Five minutes after adding lysis buffer, 25 μL of 0.1 mg/mL PK (Calbiochem) in TBS was added to each well and incubated at 37° C. for 50 minutes. 225 μL of 1 mM Pefabloc (Boehringer Mannheim) was then added to each well to inhibit PK activity. 250 μL of 1 mM Pefabloc was added to samples that were not PK-treated.

CCC1CN2CCC1CC2[C@H](O)c1ccnc2ccc(OC)cc12 (stereo partly drawn)
IC50 [1]: 12.5 µM

C=CC1CN2CCC1CC2[C@H](O)c1ccnc2ccc(OC)cc12 (stereo partly drawn)
IC50 [1]: 6 µM

COc1cc(NC(C)CCCN)c2ncccc2c1 (stereo not drawn)
IC50 [1]: < 10 µM

CCCCCCN(CCCCCC)CCCCCCNc1cc(OC)cc2c(C)ccnc12
IC50 (amyloid peptide): < 11 µM

C=CC1CN2CCC1CC2[C@H](O)c1ccnc2ccccc12 (stereo partly drawn)
IC50 [1]: 18 µM

C=CC1CN2CCC1CC2[C@@H](O)c1ccnc2ccc(OC)cc12 (stereo partly drawn)
IC50 [1]: 3 µM

C=CC1CN2CCC1CC2[C@@H](O)c1ccnc2ccccc12 (stereo partly drawn)
IC50 [1]: 6 µM

CCN(CC)CCCC(C)Nc1cc(OC)cc2c(C)ccnc12 (stereo not drawn)
IC50 [2]: 3 to 5 µM

COc1cc(C)c2c(Oc3cccc(C(F)(F)F)c3)c(OC)cc(NC(C)CCCNO)c2n1 (stereo not drawn)
IC50 [1]: ~10.4 µM

COc1cc(NC(C)CCCN)c2nccc(C)c2c1Oc1cccc(C(F)(F)F)c1 (stereo not drawn) [compound 3]
disassociation of amyloid fibrils, gel assay (in words) (Aβ42 fibrils): increase of monomeric amyloid peptide | IC50 [1]: 0.609 µM and 0.54 µM | inhibition of fibrillogenesis of amyloid peptide, gel assay (in words) (Aβ42): inhibited fibrillogenesis | IC50 (amyloid peptide): 23.1 µM | IC50 ([3]; thioflavin T, 25° C.): ~34.6 µM and 34.6 µM | IC50 [2]: 0.508 µM and 1.2 µM

OC(c1cc(C(F)(F)F)nc2c(C(F)(F)F)cccc12)C1CCCCN1 (racemic) [mefloquine, DL-erythro-α-2-piperidyl-2,8-bis(trifluoromethyl)-4-quinolinemethanol, reference compound]
disassociation of amyloid fibrils, gel assay (in words) (Aβ42 fibrils): increase of monomeric amyloid peptide | IC50 [1]: 0.5 µM | inhibition of fibrillogenesis of amyloid peptide, gel assay (in words) (Aβ42): inhibited fibrillogenesis | inhibition of the induction of PSI+ (in words) [4]: concentration dependent inhibition | inhibition at 150 µg/mL ([3]; read-out: inhibition of the polymerization of Sup-NM): ~55% | IC50 [2]: 1.27 µM and 1.2 µM

COc1cc(CO)c2c(Oc3cccc(C(F)(F)F)c3)c(OC)cc(NC(C)CCCN)c2n1 (stereo not drawn) [compound 8]
IC50 (amyloid peptide): ~10.4 µM

COc1cc(C)c2c(Oc3cccc(C(F)(F)F)c3)c(OC)cc(NC(C)CCCN)c2n1 (racemic) [tafenoquine, (±)-8-[(4-amino-1-methylbutyl)amino]-2,6-dimethoxy-4-methyl-5-(3-trifluoromethylphenoxy)quinoline]
IC50 [1]: 0.716 µM and 0.72 µM | IC50 ([4]; Saccharomyces cerevisiae, 24 h, read-out: IC50 for inhibition of induction of PSI+): 4.5 µg/mL (≈ 9.71 µM) | IC50 ([3]; thioflavin T, 25° C.): 11.2 µM | inhibition of Sup-NM amyloid polymerization (in words) ([3]; concentrations up to 200 μg/mL): nearly complete inhibition | IC50 [2]: > 2.2 µM

CCC1CN2CCC1CC2[C@@H](O)c1ccnc2ccc(OC)cc12 (stereo partly drawn)
Toxicity (note in the RML-infected N2a cells column) (RML-infected N2a cells): (toxic @ μM)

C=CC1CN2CCC1CC2C(O)c1ccnc2ccc(OC)cc12 (stereo not drawn)
IC50 [2]: 3 to 5 µM

COc1cc(NCCCCCNC(C)C)c2nccc(C)c2c1
IC50 (amyloid peptide): ~15.8 µM

COc1cc(NC(C)CCC(C)(C)N)c2nccc(C)c2c1Oc1cccc(C(F)(F)F)c1 (stereo not drawn)
IC50 (amyloid peptide): 32.5 to 65 µM

(±)-8-[(4-amino-1-methylbutyl) amino]-2,6-dimethoxy-4-methyl-5-(3-trifluoromethylphenoxy)quinoline [tafenoquine]
IC50 for purging of PRP^Sc in RML-infected N2a cells [1]: 0.332 µg/mL | IC50 for inhibition of induction of PSI+ ([4]; 24 h with 50 μM copper sulfate): 4.5 µg/mL | IC50 for inhibition of Sup35 yeast prion polymerization ([3]; thioflavin T, 25° C.): 5.2 ± 1.1 µg/mL | IC50 for purging of PRP^Sc in 22L-infected N2a cells [2]: 0.44 µg/mL

Oc1ccc(Cl)c2cccnc12
Toxicity (note in the 22L-infected N2a cells column) (22L-infected N2a cells): Toxic @ 10 μM
